Experiment: Effectiveness test on suppression of fading, one week at 50° C., visual evaluation
Type: physicochemical
Description: Each beauty essence was kept for one week at 50° C. and its stability was visually evaluated compared to the beauty essence immediately after preparation.
Expert testers judged the beauty essences tested on a scale of three as specified below: […]

Row | fading (in words) (component blended by 0.05%) | SMILES | Judgment of appearance (anti-fading) (anti-fading component 0.10% in recipe of Example 4 (0.01% iron phthalocyanine tetracarboxylic acid)) | fading (in words) (component blended by 0.1%) | fading (in words) (component blended by 0.2%)
1 | – | O=C([O-])CN(CCN(CC(=O)O)CC(=O)O)CC(=O)[O-].[Na+].[Na+] [EDTA-2Na, sodium EDTA-2] | Δ~X | Marked fading | some fading
2 | hardly any fading | O=P(O)(O)O[C@H]1[C@H](OP(=O)(O)O)[C@@H](OP(=O)(O)O)[C@H](OP(=O)(O)O)[C@@H](OP(=O)(O)O)[C@H]1OP(=O)(O)O [Phytic acid, phytic acid] | – | hardly any fading | –

From patent publication US20170105920A1, “COSMETIC METHOD USING METAL PHTHALOCYANINE DERIVATIVE” (I'FORET CO., LTD., priority 2010, published 2017)
